Data reported in publication PMC8776995 (Frontiers in Chemistry, 2022).
Where “and” joins values, the source holds several entries; their conditions need not be identical. Equal values may be shown once. Read-outs that look alike come from different tables or passages of the source.

Legend:
[1] = test system: A549 cells; test: CCK-8 antiproliferation assay, A549; details: given as fraction, Repeat 1-3; for Inhibitory efficacy: A549 cells
[2] = test system: H460 cells; test: CCK-8 antiproliferation assay, H460; details: for Inhibitory efficacy: single repeats (Repeat 1-3), given as fraction
[3] = molecular target: wild-type EGFR (Homo sapiens, UniProt P00533); test: EGFR kinase assay (ELISA)
[4] = test system: H1975 cells; test: CCK-8 antiproliferation assay, H1975; details: for Inhibitory efficacy: H1975 cells
[5] = test system: PC-9 cells; test: CCK-8 antiproliferation assay, PC-9; details: for Inhibitory efficacy: single repeats (Repeat 1-3), given as fraction

Chain of wild-type EGFR (P00533 25-1210): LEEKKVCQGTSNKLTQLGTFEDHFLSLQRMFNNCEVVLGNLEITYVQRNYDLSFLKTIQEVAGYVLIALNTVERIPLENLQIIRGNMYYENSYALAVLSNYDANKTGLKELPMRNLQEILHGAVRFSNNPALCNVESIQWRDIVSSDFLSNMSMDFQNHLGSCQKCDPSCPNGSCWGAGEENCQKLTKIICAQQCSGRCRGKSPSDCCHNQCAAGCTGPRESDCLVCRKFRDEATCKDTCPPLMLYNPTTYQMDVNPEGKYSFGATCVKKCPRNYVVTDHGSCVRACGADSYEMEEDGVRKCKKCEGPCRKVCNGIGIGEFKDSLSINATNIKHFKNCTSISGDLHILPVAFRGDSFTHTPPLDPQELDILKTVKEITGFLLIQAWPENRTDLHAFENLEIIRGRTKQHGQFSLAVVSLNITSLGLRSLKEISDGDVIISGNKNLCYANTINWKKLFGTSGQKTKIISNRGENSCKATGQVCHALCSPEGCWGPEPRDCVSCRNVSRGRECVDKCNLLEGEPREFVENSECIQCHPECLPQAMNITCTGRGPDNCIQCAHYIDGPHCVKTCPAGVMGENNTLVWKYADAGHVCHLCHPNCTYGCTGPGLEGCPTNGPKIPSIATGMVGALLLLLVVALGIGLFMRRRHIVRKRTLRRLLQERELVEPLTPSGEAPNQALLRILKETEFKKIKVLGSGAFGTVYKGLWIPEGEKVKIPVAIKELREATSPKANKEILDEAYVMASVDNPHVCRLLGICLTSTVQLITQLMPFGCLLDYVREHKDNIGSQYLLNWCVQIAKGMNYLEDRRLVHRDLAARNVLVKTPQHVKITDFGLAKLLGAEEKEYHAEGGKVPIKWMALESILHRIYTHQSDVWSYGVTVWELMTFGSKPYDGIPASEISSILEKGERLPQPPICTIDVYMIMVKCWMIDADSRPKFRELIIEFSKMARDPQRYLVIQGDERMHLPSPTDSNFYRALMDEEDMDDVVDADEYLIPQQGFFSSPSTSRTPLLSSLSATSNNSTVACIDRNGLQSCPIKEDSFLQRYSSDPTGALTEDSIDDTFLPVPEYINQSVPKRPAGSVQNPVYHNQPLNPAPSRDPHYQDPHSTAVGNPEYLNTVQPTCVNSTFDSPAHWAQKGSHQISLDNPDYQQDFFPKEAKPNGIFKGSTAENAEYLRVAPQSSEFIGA

inhibition at 0.0003 µM ([3]; 0.3 nM, duplicate wells, calculated from A450): 0.816%
Inhibition ([3]; 0.3 nM, duplicate wells, calculated from A450, 0.0003 µM): 0.7055
inhibition at 3 µM ([3]; 3000 nM, duplicate wells, calculated from A450): 41.4%
Inhibition ([3]; 3000 nM, duplicate wells, calculated from A450, 3 µM): 44.4444
inhibition at 30 µM ([3]; 30000 nM, duplicate wells, calculated from A450): 89.8%
Inhibition ([3]; 30000 nM, duplicate wells, calculated from A450, 30 µM): 89.9471
IC50 ([3]; IC50 (μM) EGFR, ELISA, 3 μmol/L ATP): 3.83 µM
IC50 ([4]; Homo sapiens, NCI-H1975, 48 h, read-out: IC50 (μM) H1975, CCK-8, 48 h, average ± SD of three independent experiments): < 10 µM
IC50 ([4]; read-out: IC50 (μM) H1975, CCK-8, 48 h, average ± SD of three independent experiments): 6.86 ± 0.17 µM
melting point: 93 to 97 °C
IC50 ([5]; Homo sapiens, PC-9, 48 h, read-out: IC50 (μM) PC-9): 7.63 ± 1.69 µM
Structure (SMILES): COCCOc1cc2ncnc(Nc3cccc(-c4cn(-c5ccccc5Br)nn4)c3)c2cc1OCCOC [e9, [6,7-Bis-(2-methoxy-ethoxy)-quinazolin-4-yl]-{3-[1-(2-bromo-phenyl)-1H-[1,2,3]triazol-4-yl]-phenyl}-amine]
Inhibitory efficacy ([1]; 1uM): 0.1197 and 0.1367
Inhibitory efficacy ([1]; 2uM): 0.3287 and 0.2555
Inhibitory efficacy ([1]; 4uM): 0.8462 and 0.8405
Inhibitory efficacy ([1]; 8uM): 0.9628 and 0.9656
Inhibitory efficacy ([1]; 16uM): 0.9642 and 0.9671
inhibition at 1 µM ([1]; Homo sapiens, A549, read-out: Inhibitory efficacy, A549 cells, 1uM): 16%
inhibition at 2 µM ([1]; Homo sapiens, A549, read-out: Inhibitory efficacy, A549 cells, 2uM): 26.7%
inhibition at 4 µM ([1]; Homo sapiens, A549, read-out: Inhibitory efficacy, A549 cells, 4uM): 82.8%
inhibition at 8 µM ([1]; Homo sapiens, A549, read-out: Inhibitory efficacy, A549 cells, 8uM): 95.9%
inhibition at 16 µM ([1]; Homo sapiens, A549, read-out: Inhibitory efficacy, A549 cells, 16uM): 96.6%
Inhibitory efficacy ([2]; H460, 2uM, 2 µM): 0.3746 and 0.3508
Inhibitory efficacy ([2]; H460, 4uM, 4 µM): 0.6113 and 0.6209
Inhibitory efficacy ([2]; H460, 8uM, 8 µM): 0.7678 and 0.7392
Inhibitory efficacy ([2]; H460, 16uM, 16 µM): 0.7559 and 0.7615
inhibition at 2 µM ([2]; Homo sapiens, NCI-H460, read-out: Inhibitory efficacy, H460, 2uM, single repeats (Repeat 1-3), given as fraction): 40.3%
inhibition at 4 µM ([2]; Homo sapiens, NCI-H460, read-out: Inhibitory efficacy, H460, 4uM, single repeats (Repeat 1-3), given as fraction): 72.6%
inhibition at 8 µM ([2]; Homo sapiens, NCI-H460, read-out: Inhibitory efficacy, H460, 8uM, single repeats (Repeat 1-3), given as fraction): 76.5%
inhibition at 16 µM ([2]; Homo sapiens, NCI-H460, read-out: Inhibitory efficacy, H460, 16uM, single repeats (Repeat 1-3), given as fraction): 77.3%
Inhibitory efficacy ([4]; 1uM, given as fraction, Repeat 1-3): 0.171 and 0.2074
Inhibitory efficacy ([4]; 4uM, given as fraction, Repeat 1-3): 0.4371 and 0.3791
Inhibitory efficacy ([4]; 8uM, given as fraction, Repeat 1-3): 0.5337 and 0.5679
Inhibitory efficacy ([4]; 16uM, given as fraction, Repeat 1-3): 0.6418 and 0.6475
inhibition at 1 µM ([4]; Homo sapiens, NCI-H1975, read-out: Inhibitory efficacy, H1975 cells, 1uM, given as fraction, Repeat 1-3): 15.5%
inhibition at 4 µM ([4]; Homo sapiens, NCI-H1975, read-out: Inhibitory efficacy, H1975 cells, 4uM, given as fraction, Repeat 1-3): 37.6%
inhibition at 8 µM ([4]; Homo sapiens, NCI-H1975, read-out: Inhibitory efficacy, H1975 cells, 8uM, given as fraction, Repeat 1-3): 58%
inhibition at 16 µM ([4]; Homo sapiens, NCI-H1975, read-out: Inhibitory efficacy, H1975 cells, 16uM, given as fraction, Repeat 1-3): 66.8%
inhibition at 4 µM ([5]; Homo sapiens, PC-9, read-out: Inhibitory efficacy, PC-9, 4uM, single repeats (Repeat 1-3), given as fraction): 42.1%
inhibition at 8 µM ([5]; Homo sapiens, PC-9, read-out: Inhibitory efficacy, PC-9, 8uM, single repeats (Repeat 1-3), given as fraction): 57.9%
inhibition at 16 µM ([5]; Homo sapiens, PC-9, read-out: Inhibitory efficacy, PC-9, 16uM, single repeats (Repeat 1-3), given as fraction): 54.2%
Inhibitory efficacy ([5]; PC-9, 4uM, 4 µM): 0.4231 and 0.428
Inhibitory efficacy ([5]; PC-9, 8uM, 8 µM): 0.5458 and 0.6686
Inhibitory efficacy ([5]; PC-9, 16uM, 16 µM): 0.5655 and 0.5078
